System: MV-4-11 cells
Assay: Gene expression microarray analysis (Affymetrix PrimeView) and GSEA
Format: cell-based, human
Set-up: RFU PODN (11730768_x_at) / Fold change /veh PODN (11730768_x_at) / RFU LINC00158 (11744669_a_at) / Fold change /veh LINC00158 (11744669_a_at) / RFU DUSP10 (11751237_a_at) / Fold change /veh DUSP10 (11751237_a_at) / RFU ID3 (11757404_x_at) / Fold change /veh ID3 (11757404_x_at) / RFU PLEKHG5 (11737974_s_at) / Fold change /veh PLEKHG5 (11737974_s_at) / RFU LRRC4B (11730491_at) / Fold change /veh LRRC4B (11730491_at) / RFU GIMAP4 (11747438_a_at) / Fold change /veh GIMAP4 (11747438_a_at) / RFU KRT8 (11758183_x_at) / Fold change /veh KRT8 (11758183_x_at) / RFU CNN1 (11734310_a_at) / Fold change /veh CNN1 (11734310_a_at) / RFU VPS37D (11726825_at) / Fold change /veh VPS37D (11726825_at) / RFU C10orf10 (11716522_x_at) / Fold change /veh C10orf10 (11716522_x_at) / RFU KIR2DL2 /// KIR2DL4 /// KIR2DL5A /// KIR2DL5B /// KIR2DS1 /// KIR2DS2 /// KIR2DS3 /// KIR2DS4 /// KIR3DL3 /// KIR3DL3 /// KIR3DS1 (11738374_at) / Fold change /veh KIR2DL2 /// KIR2DL4 /// KIR2DL5A /// KIR2DL5B /// KIR2DS1 /// KIR2DS2 /// KIR2DS3 /// KIR2DS4 /// KIR3DL3 /// KIR3DL3 /// KIR3DS1 (11738374_at) / RFU C1QL1 (11718748_at) / Fold change /veh C1QL1 (11718748_at) / RFU TMPRSS4 (11747572_a_at) / Fold change /veh TMPRSS4 (11747572_a_at) / RFU HAMP (11756126_x_at) / Fold change /veh HAMP (11756126_x_at) / RFU RNFT2 (11725882_a_at) / Fold change /veh RNFT2 (11725882_a_at) / RFU NR4A2 (11747474_a_at) / Fold change /veh NR4A2 (11747474_a_at) / RFU ABCC12 (11746883_a_at) / Fold change /veh ABCC12 (11746883_a_at) / RFU TMEM136 (11760407_x_at) / Fold change /veh TMEM136 (11760407_x_at) / RFU CLDN22 /// WWC2 (11732394_at) / Fold change /veh CLDN22 /// WWC2 (11732394_at) / RFU HLA-DPB1 (11760878_x_at) / Fold change /veh HLA-DPB1 (11760878_x_at) / RFU SPINT1 (11716480_a_at) / Fold change /veh SPINT1 (11716480_a_at) / RFU GAP43 (11754022_s_at) / Fold change /veh GAP43 (11754022_s_at) / RFU A4GNT (11735810_at) / Fold change /veh A4GNT (11735810_at) / RFU PRB3 (11715151_x_at) / Fold change /veh PRB3 (11715151_x_at) / RFU TUBB4B (11761932_at) / Fold change /veh TUBB4B (11761932_at) / RFU CAPN14 (11732068_a_at) / Fold change /veh CAPN14 (11732068_a_at) / RFU TMCC2 (11721928_a_at) / Fold change /veh TMCC2 (11721928_a_at) / RFU IRGQ (11745062_a_at) / Fold change /veh IRGQ (11745062_a_at) / RFU FAM174B (11720279_a_at) / Fold change /veh FAM174B (11720279_a_at) / RFU TMPRSS4 (11748680_a_at) / Fold change /veh TMPRSS4 (11748680_a_at) / RFU FAM212B (11763350_a_at) / Fold change /veh FAM212B (11763350_a_at) / RFU PLEKHG5 (11743358_a_at) / Fold change /veh PLEKHG5 (11743358_a_at) / RFU ZSCAN30 (11745921_a_at) / Fold change /veh ZSCAN30 (11745921_a_at) / RFU CMKLR1 (11741424_a_at) / Fold change /veh CMKLR1 (11741424_a_at) / RFU LOC101060620 /// MAPK8IP1 (11723275_at) / Fold change /veh LOC101060620 /// MAPK8IP1 (11723275_at) / RFU SPTSSB (11747773_x_at) / Fold change /veh SPTSSB (11747773_x_at) / RFU PRSS12 (11739890_at) / Fold change /veh PRSS12 (11739890_at) / RFU BIN1 (11741810_x_at) / Fold change /veh BIN1 (11741810_x_at) / RFU WNT11 (11732464_a_at) / Fold change /veh WNT11 (11732464_a_at) / RFU C10orf10 (11716521_a_at) / Fold change /veh C10orf10 (11716521_a_at) / RFU C5orf56 (11738089_at) / Fold change /veh C5orf56 (11738089_at) / RFU CYB561 (11721691_x_at) / Fold change /veh CYB561 (11721691_x_at) / RFU ANKRD19P (11752326_a_at) / Fold change /veh ANKRD19P (11752326_a_at) / RFU OR2T12 /// OR2T33 /// OR2T8 (11738714_s_at) / Fold change /veh OR2T12 /// OR2T33 /// OR2T8 (11738714_s_at) / RFU VCAN (11748164_a_at) / Fold change /veh VCAN (11748164_a_at) / RFU JSRP1 (11732532_at) / Fold change /veh JSRP1 (11732532_at) / RFU KRTAP10-11 (11738290_x_at) / Fold change /veh KRTAP10-11 (11738290_x_at) / RFU MYO3A (11730013_a_at) / Fold change /veh MYO3A (11730013_a_at) / RFU EBF3 (11725865_a_at) / Fold change /veh EBF3 (11725865_a_at) / RFU CAMK2N1 (11719241_x_at) / Fold change /veh CAMK2N1 (11719241_x_at) / RFU C5orf56 (11738088_a_at) / Fold change /veh C5orf56 (11738088_a_at) / RFU OLFML3 (11715873_a_at) / Fold change /veh OLFML3 (11715873_a_at) / RFU LOC100653217 /// NTM (11731650_a_at) / Fold change /veh LOC100653217 /// NTM (11731650_a_at) / RFU MAPK11 (11762145_a_at) / Fold change /veh MAPK11 (11762145_a_at) / RFU FIZ1 (11724087_x_at) / Fold change /veh FIZ1 (11724087_x_at) / RFU OASL (11726364_x_at) / Fold change /veh OASL (11726364_x_at) / RFU SOX15 (11748057_x_at) / Fold change /veh SOX15 (11748057_x_at) / RFU CD79A (11719716_a_at) / Fold change /veh CD79A (11719716_a_at) / RFU HIST1H1D (11736915_at) / Fold change /veh HIST1H1D (11736915_at) / RFU CASKIN2 (11723855_a_at) / Fold change /veh CASKIN2 (11723855_a_at) / RFU LOC730098 (11760151_x_at) / Fold change /veh LOC730098 (11760151_x_at) / RFU OR4N2 (11742367_at) / Fold change /veh OR4N2 (11742367_at) / RFU PRRT2 (11749266_a_at) / Fold change /veh PRRT2 (11749266_a_at) / RFU SNX32 (11753110_a_at) / Fold change /veh SNX32 (11753110_a_at) / RFU CDHR5 (11726645_a_at) / Fold change /veh CDHR5 (11726645_a_at) / RFU RCAN1 (11760418_a_at) / Fold change /veh RCAN1 (11760418_a_at) / RFU FAM167A (11723789_a_at) / Fold change /veh FAM167A (11723789_a_at) / RFU FAM26E (11764081_at) / Fold change /veh FAM26E (11764081_at) / RFU ISYNA1 (11749810_s_at) / Fold change /veh ISYNA1 (11749810_s_at) / RFU ACY1 (11761880_at) / Fold change /veh ACY1 (11761880_at) / RFU 11764098_at / Fold change /veh 11764098_at / RFU SAMD14 (11745864_x_at) / Fold change /veh SAMD14 (11745864_x_at) / RFU NPB (11741838_a_at) / Fold change /veh NPB (11741838_a_at) / RFU TMPRSS6 (11731388_a_at) / Fold change /veh TMPRSS6 (11731388_a_at) / RFU KRTAP10-2 (11738614_at) / Fold change /veh KRTAP10-2 (11738614_at) / RFU ARHGAP8 /// PRR5-ARHGAP8 (11727945_x_at) / Fold change /veh ARHGAP8 /// PRR5-ARHGAP8 (11727945_x_at) / RFU KRTAP5-7 /// NADSYN1 (11734609_at) / Fold change /veh KRTAP5-7 /// NADSYN1 (11734609_at) / RFU RASL12 (11751679_a_at) / Fold change /veh RASL12 (11751679_a_at) / RFU CDKN2B (11736163_a_at) / Fold change /veh CDKN2B (11736163_a_at) / RFU PRF1 (11729649_at) / Fold change /veh PRF1 (11729649_at) / RFU, ZNF638 /// ZNF638-IT1 / Fold change vs veh, ZNF638 /// ZNF638-IT1 / RFU, PANK3 / Fold change vs veh, PANK3 / RFU, SH3YL1 / Fold change vs veh, SH3YL1 / RFU, ZEB2 / Fold change vs veh, ZEB2 / RFU, NRIP1 / Fold change vs veh, NRIP1 / RFU, PTTG1IP / Fold change vs veh, PTTG1IP / RFU, CAPN2 / Fold change vs veh, CAPN2 / RFU, MED14 / Fold change vs veh, MED14 / RFU, SNORA58 / Fold change vs veh, SNORA58 / RFU, C1orf63 / Fold change vs veh, C1orf63 / RFU, LRRFIP1 / Fold change vs veh, LRRFIP1 / RFU, NDUFAF7 / Fold change vs veh, NDUFAF7 / RFU, SLC12A2 / Fold change vs veh, SLC12A2 / RFU, IBTK / Fold change vs veh, IBTK / RFU, ESF1 / Fold change vs veh, ESF1 / Fold change vs veh, TMEM50B / RFU, TAOK1 / Fold change vs veh, TAOK1 / RFU, ACBD3 / Fold change vs veh, ACBD3 / RFU, TMA16 / Fold change vs veh, TMA16 / RFU, RWDD3 / Fold change vs veh, RWDD3 / RFU, BCAT1 / Fold change vs veh, BCAT1 / RFU, EDEM3 / Fold change vs veh, EDEM3 / RFU, TMEM33 / Fold change vs veh, TMEM33 / RFU, WDR75 / Fold change vs veh, WDR75 / RFU, AHCTF1 / Fold change vs veh, AHCTF1 / RFU, TFRC / Fold change vs veh, TFRC / RFU, ZDHHC17 / Fold change vs veh, ZDHHC17 / RFU, NOM1 / Fold change vs veh, NOM1 / RFU, ARL8B / Fold change vs veh, ARL8B / RFU, ZBTB11 / Fold change vs veh, ZBTB11 / RFU, TAMM41 / Fold change vs veh, TAMM41 / RFU, KIAA1704 /// LOC100996395 / Fold change vs veh, KIAA1704 /// LOC100996395 / RFU, ING1 / Fold change vs veh, ING1 / RFU, TRMT61B / Fold change vs veh, TRMT61B / RFU, FUBP3 / Fold change vs veh, FUBP3 / RFU, TP53 / Fold change vs veh, TP53 / RFU, TNKS2 / Fold change vs veh, TNKS2 / RFU, ZFP14 / Fold change vs veh, ZFP14 / RFU, ACTR2 / Fold change vs veh, ACTR2 / RFU, PPP3R1 / Fold change vs veh, PPP3R1 / RFU, PIK3R1 / Fold change vs veh, PIK3R1 / RFU, HNRNPA1 / Fold change vs veh, HNRNPA1 / RFU, RNF170 / Fold change vs veh, RNF170 / RFU, ZNF28 / Fold change vs veh, ZNF28 / RFU, RNGTT / Fold change vs veh, RNGTT / RFU, OGT / Fold change vs veh, OGT / RFU, BRD1 / Fold change vs veh, BRD1 / RFU, MARS / Fold change vs veh, MARS / RFU, ZNF655 / Fold change vs veh, ZNF655 / RFU, FAHD1 / Fold change vs veh, FAHD1 / RFU, BDP1 / Fold change vs veh, BDP1 / RFU, LRRCC1 / Fold change vs veh, LRRCC1 / RFU, ARID1A / Fold change vs veh, ARID1A / RFU, ZNF146 / Fold change vs veh, ZNF146 / RFU, ZNF330 / Fold change vs veh, ZNF330 / RFU, GPN3 / Fold change vs veh, GPN3 / RFU, C9orf123 / Fold change vs veh, C9orf123 / RFU, N4BP2L2 / Fold change vs veh, N4BP2L2 / RFU, ARFIP1 / Fold change vs veh, ARFIP1 / RFU, FAM179B / Fold change vs veh, FAM179B / RFU, BCL10 / Fold change vs veh, BCL10 / RFU, UHRF1BP1L / Fold change vs veh, UHRF1BP1L / RFU, BET1 / Fold change vs veh, BET1 / RFU, CNOT2 / Fold change vs veh, CNOT2 / RFU, ZNF268 / Fold change vs veh, ZNF268 / Fold change vs veh, ZNF507 / RFU, DGCR2 / Fold change vs veh, DGCR2 / RFU, WDSUB1 / Fold change vs veh, WDSUB1 / Fold change vs veh, HSP90B1 /// MIR3652 / RFU, ADSS / Fold change vs veh, ADSS / RFU, GK / Fold change vs veh, GK / RFU, ZNF148 / Fold change vs veh, ZNF148 / RFU, TAF9 / Fold change vs veh, TAF9 / RFU, SLC1A5 / Fold change vs veh, SLC1A5 / RFU, SLMO2 / Fold change vs veh, SLMO2 / RFU, ABCC4 / Fold change vs veh, ABCC4 / RFU, LOC101060439 /// RAP1B / Fold change vs veh, LOC101060439 /// RAP1B / RFU, RFX7 / Fold change vs veh, RFX7 / RFU, GTPBP10 / Fold change vs veh, GTPBP10 / RFU, CNEP1R1 / Fold change vs veh, CNEP1R1 / RFU, BIVM-ERCC5 /// ERCC5 / Fold change vs veh, BIVM-ERCC5 /// ERCC5 / RFU, ILF3 / Fold change vs veh, ILF3 / RFU 11762660_at / Fold change /veh 11762660_at / RFU VCAN (11757783_s_at) / Fold change /veh VCAN (11757783_s_at) / RFU DDX43 (11728927_at) / Fold change /veh DDX43 (11728927_at) / RFU KRT8 (11758188_x_at) / Fold change /veh KRT8 (11758188_x_at) / RFU NKD1 (11759106_at) / Fold change /veh NKD1 (11759106_at) / RFU SRD5A1 (11742802_a_at) / Fold change /veh SRD5A1 (11742802_a_at) / RFU TPSAB1 /// TPSB2 (11721975_s_at) / Fold change /veh TPSAB1 /// TPSB2 (11721975_s_at) / RFU GSTM3 (11746129_a_at) / Fold change /veh GSTM3 (11746129_a_at) / RFU IL23R (11737362_x_at) / Fold change /veh IL23R (11737362_x_at) / RFU TMEM51 (11727254_a_at) / Fold change /veh TMEM51 (11727254_a_at) / RFU PIWIL2 (11732686_x_at) / Fold change /veh PIWIL2 (11732686_x_at) / RFU ORM1 (11744905_x_at) / Fold change /veh ORM1 (11744905_x_at) / RFU CCDC152 (11743942_at) / Fold change /veh CCDC152 (11743942_at) / RFU ECM1 (11717891_a_at) / Fold change /veh ECM1 (11717891_a_at) / RFU IL23R (11748794_a_at) / Fold change /veh IL23R (11748794_a_at) / RFU TNFAIP8L3 (11732012_x_at) / Fold change /veh TNFAIP8L3 (11732012_x_at) / RFU MBOAT4 (11741988_at) / Fold change /veh MBOAT4 (11741988_at) / RFU 11764193_at / Fold change /veh 11764193_at / RFU TMEM53 (11763286_at) / Fold change /veh TMEM53 (11763286_at) / RFU MAGEB2 (11727129_at) / Fold change /veh MAGEB2 (11727129_at) / RFU TMEM200A (11744735_a_at) / Fold change /veh TMEM200A (11744735_a_at) / RFU CCDC152 (11751479_a_at) / Fold change /veh CCDC152 (11751479_a_at) / RFU FAM211A (11726209_a_at) / Fold change /veh FAM211A (11726209_a_at) / RFU RGS16 (11746705_a_at) / Fold change /veh RGS16 (11746705_a_at) / RFU VCAN (11755009_s_at) / Fold change /veh VCAN (11755009_s_at) / RFU RHOB (11743442_s_at) / Fold change /veh RHOB (11743442_s_at) / RFU RGS16 (11720943_a_at) / Fold change /veh RGS16 (11720943_a_at) / RFU RGS16 (11720944_at) / Fold change /veh RGS16 (11720944_at) / RFU, VPS4B / Fold change vs veh, VPS4B / RFU, CREB1 / Fold change vs veh, CREB1 / RFU, DNAJC13 / Fold change vs veh, DNAJC13 / RFU, GNAQ / Fold change vs veh, GNAQ / RFU, CDK5R1 / Fold change vs veh, CDK5R1 / RFU, ZRANB3 / Fold change vs veh, ZRANB3 / RFU, CUL4A / Fold change vs veh, CUL4A / RFU, CCNY / Fold change vs veh, CCNY / RFU, UFL1 / Fold change vs veh, UFL1 / RFU, COG3 / Fold change vs veh, COG3 / RFU, DIAPH2 / Fold change vs veh, DIAPH2 / RFU, SKA2 / Fold change vs veh, SKA2 / RFU, AFF3 / Fold change vs veh, AFF3 / RFU, LMF1 / Fold change vs veh, LMF1 / RFU, IPO11 / Fold change vs veh, IPO11 / RFU, DFFB / Fold change vs veh, DFFB / RFU, FOXP1 / Fold change vs veh, FOXP1 / RFU, CARD8 / Fold change vs veh, CARD8 / RFU, STRN3 / Fold change vs veh, STRN3 / RFU, ADK / Fold change vs veh, ADK / RFU, RASSF2 / Fold change vs veh, RASSF2 / RFU, WIPF1 / Fold change vs veh, WIPF1 / RFU, LARP1B / Fold change vs veh, LARP1B / RFU, RASA1 / Fold change vs veh, RASA1 / RFU, RB1 / Fold change vs veh, RB1 / RFU, PPFIA1 / Fold change vs veh, PPFIA1 / RFU, MAT2A / Fold change vs veh, MAT2A / RFU, CCT5 / Fold change vs veh, CCT5 / RFU, WDR92 / Fold change vs veh, WDR92 / RFU, CUX1 / Fold change vs veh, CUX1 / RFU, TTC7A / Fold change vs veh, TTC7A / RFU, TMEM135 / Fold change vs veh, TMEM135 / RFU, DEPTOR / Fold change vs veh, DEPTOR / RFU, CPM / Fold change vs veh, CPM / RFU, DNAJB6 / Fold change vs veh, DNAJB6 / RFU, CACNA2D3 / Fold change vs veh, CACNA2D3 / RFU, DTX4 / Fold change vs veh, DTX4 / RFU, TFCP2 / Fold change vs veh, TFCP2 / RFU, GMCL1 /// GMCL1P1 / Fold change vs veh, GMCL1 /// GMCL1P1 / RFU, AEBP2 / Fold change vs veh, AEBP2 / RFU, SNHG1 /// SNORD22 /// SNORD25 /// SNORD26 /// SNORD27 /// SNORD28 /// SNORD29 /// SNORD31 / Fold change vs veh, SNHG1 /// SNORD22 /// SNORD25 /// SNORD26 /// SNORD27 /// SNORD28 /// SNORD29 /// SNORD31 / Fold change (Aza/veh), C12orf56 (ProbeSet 11735607_a_at) / Fold change (ACY-1035/veh), C12orf56 (ProbeSet 11735607_a_at) / Fold change (Aza/veh), FGFR1OP (ProbeSet 11751329_s_at) / Fold change (ACY-1035/veh), FGFR1OP (ProbeSet 11751329_s_at) / Fold change (Aza/veh), VPS36 (ProbeSet 11739960_a_at) / Fold change (ACY-1035/veh), VPS36 (ProbeSet 11739960_a_at) / RFU SYPL1 (11715823_x_at) / Fold change /veh SYPL1 (11715823_x_at) / RFU IGFBP7 (11715501_s_at) / Fold change /veh IGFBP7 (11715501_s_at) / RFU REEP3 (11722064_at) / Fold change /veh REEP3 (11722064_at) / RFU IGLL1 (11728026_x_at) / Fold change /veh IGLL1 (11728026_x_at): dose or concentration left out as unconfirmed
Conditions: MV-4-11 cells, 48 hours

Nc1ncn([C@@H]2O[C@H](CO)[C@@H](O)[C@H]2O)c(=O)n1 [azacitidine] was tested, and the “RFU C10orf10 (11716522_x_at)” value was 45.56 RFU.
